Laboratory results from US10004701B2, “Methods and compositions for treating infection” (UNIVERSITY OF ROCHESTER, priority 2012, dated 2018).
Structures can show the parent of a compound that is named as a salt. Where two headings read alike, the source gives them in different places.

Assays:
Assay in all cases: AK assay 384-well format, Prestwick library screening
E. faecium = type: cell-based, Enterococcus faecium; conditions: 50 μM final drug concentration; for fold induction at 50 µM: Enterococcus faecium, 3 h
[1] = test system: S. aureus strain USA300-0114; type: cell-based, Staphylococcus aureus; conditions: 50 μM final drug concentration; for fold induction at 50 µM: Staphylococcus aureus, USA300, 3 h
K. pneumoniae = type: cell-based, Klebsiella pneumoniae; conditions: 50 μM final drug concentration; for fold induction at 50 µM: Klebsiella pneumoniae, 3 h
[2] = test system: A. baumannii strain 98-37-09; type: cell-based, Acinetobacter baumannii; conditions: 50 μM final drug concentration; for fold induction at 50 µM: Acinetobacter baumannii, 983709, 3 h
P. aeruginosa = type: cell-based, Pseudomonas aeruginosa; conditions: 50 μM final drug concentration; for fold induction at 50 µM: Pseudomonas aeruginosa, 3 h
E. cloacae = type: cell-based, Enterobacter cloacae; conditions: 50 μM final drug concentration; for fold induction at 50 µM: Enterobacter cloacae, 3 h
E. coli = type: cell-based, Escherichia coli; conditions: 50 μM final drug concentration; for fold induction at 50 µM: Escherichia coli, 3 h
[3] = 384-well format, cutoff for positive-scoring molecules 3-fold increase, read-out: AK-based Prestwick Library Screening Results, E. faecium (increase in extracellular AK activity)
[4] = 384-well format, cutoff for positive-scoring molecules 3-fold increase, read-out: AK-based Prestwick Library Screening Results, S. aureus (increase in extracellular AK activity)
[5] = 384-well format, cutoff for positive-scoring molecules 3-fold increase, read-out: AK-based Prestwick Library Screening Results, K. pneumoniae (increase in extracellular AK activity)
[6] = 384-well format, cutoff for positive-scoring molecules 3-fold increase, read-out: AK-based Prestwick Library Screening Results, A. baumannii (increase in extracellular AK activity)
[7] = 384-well format, cutoff for positive-scoring molecules 3-fold increase, read-out: AK-based Prestwick Library Screening Results, P. aeruginosa (increase in extracellular AK activity)
[8] = 384-well format, cutoff for positive-scoring molecules 3-fold increase, read-out: AK-based Prestwick Library Screening Results, E. cloacae (increase in extracellular AK activity)
[9] = 384-well format, cutoff for positive-scoring molecules 3-fold increase, read-out: AK-based Prestwick Library Screening Results, E. coli (increase in extracellular AK activity)
[10] = planktonic, cutoff for positive-scoring molecules 3-fold increase
[11] = planktonic E. faecium, cutoff for positive-scoring molecules 3-fold increase, read-out: AK-based Prestwick Library Screening Results, E. faecium (increase in extracellular AK activity)
[12] = planktonic S. aureus, cutoff for positive-scoring molecules 3-fold increase, read-out: AK-based Prestwick Library Screening Results, S. aureus (increase in extracellular AK activity)
[13] = planktonic K. pneumoniae, cutoff for positive-scoring molecules 3-fold increase, read-out: AK-based Prestwick Library Screening Results, K. pneumoniae (increase in extracellular AK activity)
[14] = planktonic A. baumannii, cutoff for positive-scoring molecules 3-fold increase, read-out: AK-based Prestwick Library Screening Results, A. baumannii (increase in extracellular AK activity)
[15] = planktonic P. aeruginosa, cutoff for positive-scoring molecules 3-fold increase, read-out: AK-based Prestwick Library Screening Results, P. aeruginosa (increase in extracellular AK activity)
[16] = planktonic E. cloacae, cutoff for positive-scoring molecules 3-fold increase, read-out: AK-based Prestwick Library Screening Results, E. cloacae (increase in extracellular AK activity)
[17] = planktonic E. coli, cutoff for positive-scoring molecules 3-fold increase, read-out: AK-based Prestwick Library Screening Results, E. coli (increase in extracellular AK activity)

Compound: CCCCN(CCCC)CCC(O)c1cc2c(Cl)cc(Cl)cc2c2cc(C(F)(F)F)ccc12 (centres unmarked) [Halofantrine hydrochloride]
- fold induction at 50 µM (E. faecium; planktonic E. faecium, positive cutoff 3-fold increase, read-out: AK-based Prestwick library screening result, E. faecium (fold increase in extracellular AK activity)): 1
- fold induction at 50 µM ([1]; planktonic S. aureus, positive cutoff 3-fold increase, read-out: AK-based Prestwick library screening result, S. aureus (fold increase in extracellular AK activity)): 1.2
- fold induction at 50 µM (K. pneumoniae; planktonic K. pneumoniae, positive cutoff 3-fold increase, read-out: AK-based Prestwick library screening result, K. pneumoniae (fold increase in extracellular AK activity)): 1.1
- fold induction at 50 µM ([2]; planktonic A. baumannii, positive cutoff 3-fold increase, read-out: AK-based Prestwick library screening result, A. baumannii (fold increase in extracellular AK activity)): 1.3
- fold induction at 50 µM (P. aeruginosa; planktonic P. aeruginosa, positive cutoff 3-fold increase, read-out: AK-based Prestwick library screening result, P. aeruginosa (fold increase in extracellular AK activity)): 1.1
- fold induction at 50 µM (E. cloacae; planktonic E. cloacae, positive cutoff 3-fold increase, read-out: AK-based Prestwick library screening result, E. cloacae (fold increase in extracellular AK activity)): 1.3
- fold induction at 50 µM (E. coli; planktonic E. coli, positive cutoff 3-fold increase, read-out: AK-based Prestwick library screening result, E. coli (fold increase in extracellular AK activity)): 1

Compound: O=C(O)c1cccnc1Nc1cccc(C(F)(F)F)c1 [Niflumic acid]
- fold induction at 50 µM (E. faecium; [3]): 0.9
- fold induction at 50 µM [1, 4]: 0.7
- fold induction at 50 µM (K. pneumoniae; [5]): 0.6
- fold induction at 50 µM [2, 6]: 0.7
- fold induction at 50 µM (P. aeruginosa; [7]): 0.7
- fold induction at 50 µM (E. cloacae; [8]): 0.8
- fold induction at 50 µM (E. coli; [9]): 0.6

Compound: C[C@@]1(O)CCOC(=O)C1 [Mevalonic-D, L acid lactone]
- AK-based Prestwick Library Screening Results, E. faecium (fold increase in extracellular AK activity) (E. faecium; [10]): 1.0
- AK-based Prestwick Library Screening Results, S. aureus (fold increase in extracellular AK activity) [1, 10]: 0.9
- AK-based Prestwick Library Screening Results, K. pneumoniae (fold increase in extracellular AK activity) (K. pneumoniae; [10]): 0.8
- AK-based Prestwick Library Screening Results, A. baumannii (fold increase in extracellular AK activity) [2, 10]: 0.9
- AK-based Prestwick Library Screening Results, P. aeruginosa (fold increase in extracellular AK activity) (P. aeruginosa; [10]): 0.8
- AK-based Prestwick Library Screening Results, E. cloacae (fold increase in extracellular AK activity) (E. cloacae; [10]): 0.9
- AK-based Prestwick Library Screening Results, E. coli (fold increase in extracellular AK activity) (E. coli; [10]): 1.0

Compound: CC[C@H]1[C@@H]2C[C@H]3[C@@H]4N(C)c5ccccc5[C@]45C[C@@H]([C@H]2[C@H]5O)N3[C@@H]1O [Ajmaline]
- fold induction at 50 µM (E. faecium; planktonic, […], read-out: AK-based Prestwick Library Screening Results, E. faecium (fold increase in extracellular AK activity)): 1.1
- fold induction at 50 µM ([1]; planktonic, […], read-out: AK-based Prestwick Library Screening Results, S. aureus (fold increase in extracellular AK activity)): 1
- fold induction at 50 µM (K. pneumoniae; planktonic, […], read-out: AK-based Prestwick Library Screening Results, K. pneumoniae (fold increase in extracellular AK activity)): 0.9
- fold induction at 50 µM ([2]; planktonic, […], read-out: AK-based Prestwick Library Screening Results, A. baumannii (fold increase in extracellular AK activity)): 1.1
- fold induction at 50 µM (P. aeruginosa; planktonic, […], read-out: AK-based Prestwick Library Screening Results, P. aeruginosa (fold increase in extracellular AK activity)): 1.1
- fold induction at 50 µM (E. cloacae; planktonic, […], read-out: AK-based Prestwick Library Screening Results, E. cloacae (fold increase in extracellular AK activity)): 1.6
- fold induction at 50 µM (E. coli; planktonic, […], read-out: AK-based Prestwick Library Screening Results, E. coli (fold increase in extracellular AK activity)): 1.2

Compound: COc1ccc(Cc2nccc3cc(OC)c(OC)cc23)cc1OC [Papaverine hydrochloride]
- fold induction at 50 µM (E. faecium; [11]): 1
- fold induction at 50 µM [1, 12]: 0.6
- fold induction at 50 µM (K. pneumoniae; [13]): 0.8
- fold induction at 50 µM [2, 14]: 0.8
- fold induction at 50 µM (P. aeruginosa; [15]): 1
- fold induction at 50 µM (E. cloacae; [16]): 0.9
- fold induction at 50 µM (E. coli; [17]): 0.9

Compound: O=C(O)Cc1ccccc1Nc1c(Cl)cccc1Cl [Diclofenac sodium]
- fold induction at 50 µM (E. faecium; [11]): 0.9
- fold induction at 50 µM [1, 12]: 0.8
- fold induction at 50 µM (K. pneumoniae; [13]): 0.7
- fold induction at 50 µM [2, 14]: 0.8
- fold induction at 50 µM (P. aeruginosa; [15]): 0.9
- fold induction at 50 µM (E. cloacae; [16]): 1.2
- fold induction at 50 µM (E. coli; [17]): 0.9

Compound: Cc1ncc([N+](=O)[O-])n1CCO [Metronidazole]
- fold induction at 50 µM (E. faecium; [3]): 0.8
- fold induction at 50 µM [1, 4]: 0.4
- fold induction at 50 µM (K. pneumoniae; [5]): 0.4
- fold induction at 50 µM [2, 6]: 0.4
- fold induction at 50 µM (P. aeruginosa; [7]): 0.3
- fold induction at 50 µM (E. cloacae; [8]): 0.3
- fold induction at 50 µM (E. coli; [9]): 0.4

Compound: CC(O)Cn1cnc2c1c(=O)n(C)c(=O)n2C (centres unmarked) [Proxyphylline]
- fold induction at 50 µM (E. faecium; planktonic, cutoff for positive-scoring molecules 3-fold increase, read-out: AK-based Prestwick Library Screening Results, E. faecium (fold increase in extracellular AK activity)): 0.9
- fold induction at 50 µM ([1]; planktonic, cutoff for positive-scoring molecules 3-fold increase, read-out: AK-based Prestwick Library Screening Results, S. aureus (fold increase in extracellular AK activity)): 0.5
- fold induction at 50 µM (K. pneumoniae; planktonic, cutoff for positive-scoring molecules 3-fold increase, read-out: AK-based Prestwick Library Screening Results, K. pneumoniae (fold increase in extracellular AK activity)): 0.5
- fold induction at 50 µM ([2]; planktonic, cutoff for positive-scoring molecules 3-fold increase, read-out: AK-based Prestwick Library Screening Results, A. baumannii (fold increase in extracellular AK activity)): 0.6
- fold induction at 50 µM (P. aeruginosa; planktonic, cutoff for positive-scoring molecules 3-fold increase, read-out: AK-based Prestwick Library Screening Results, P. aeruginosa (fold increase in extracellular AK activity)): 0.5
- fold induction at 50 µM (E. cloacae; planktonic, cutoff for positive-scoring molecules 3-fold increase, read-out: AK-based Prestwick Library Screening Results, E. cloacae (fold increase in extracellular AK activity)): 0.5
- fold induction at 50 µM (E. coli; planktonic, cutoff for positive-scoring molecules 3-fold increase, read-out: AK-based Prestwick Library Screening Results, E. coli (fold increase in extracellular AK activity)): 0.5

Compound: CC(C)NCC(O)c1ccc(O)c(O)c1.Cl (single isomer, unassigned; (-)) [(−)-Isoproterenol hydrochloride]
- AK-based Prestwick library screening result, E. faecium (fold increase in extracellular AK activity) (E. faecium; planktonic E. faecium, positive cutoff 3-fold increase): 0.9
- AK-based Prestwick library screening result, S. aureus (fold increase in extracellular AK activity) ([1]; planktonic S. aureus, positive cutoff 3-fold increase): 0.9
- AK-based Prestwick library screening result, K. pneumoniae (fold increase in extracellular AK activity) (K. pneumoniae; planktonic K. pneumoniae, positive cutoff 3-fold increase): 1.2
- AK-based Prestwick library screening result, A. baumannii (fold increase in extracellular AK activity) ([2]; planktonic A. baumannii, positive cutoff 3-fold increase): 0.9
- AK-based Prestwick library screening result, P. aeruginosa (fold increase in extracellular AK activity) (P. aeruginosa; planktonic P. aeruginosa, positive cutoff 3-fold increase): 1.1
- AK-based Prestwick library screening result, E. cloacae (fold increase in extracellular AK activity) (E. cloacae; planktonic E. cloacae, positive cutoff 3-fold increase): 2.3
- AK-based Prestwick library screening result, E. coli (fold increase in extracellular AK activity) (E. coli; planktonic E. coli, positive cutoff 3-fold increase): 1.2

Compound: COc1cc(OC)c(C(=O)CCCN2CCCC2)c(OC)c1 [Buflomedil hydrochloride]
- fold induction at 50 µM (E. faecium; [11]): 0.8
- fold induction at 50 µM [1, 12]: 0.6
- fold induction at 50 µM (K. pneumoniae; [13]): 0.6
- fold induction at 50 µM [2, 14]: 0.7
- fold induction at 50 µM (P. aeruginosa; [15]): 0.8
- fold induction at 50 µM (E. cloacae; [16]): 0.9
- fold induction at 50 µM (E. coli; [17]): 0.8

Compound: CC(C)OC(=O)C(C)(C)Oc1ccc(C(=O)c2ccc(Cl)cc2)cc1 [Fenofibrate]
- fold induction at 50 µM (E. faecium; [3]): 0.8
- fold induction at 50 µM [1, 4]: 0.8
- fold induction at 50 µM (K. pneumoniae; [5]): 0.6
- fold induction at 50 µM [2, 6]: 0.7
- fold induction at 50 µM (P. aeruginosa; [7]): 0.8
- fold induction at 50 µM (E. cloacae; [8]): 1.2
- fold induction at 50 µM (E. coli; [9]): 0.8
